Drawing on US20260250289A1, “BICYCLIC HETEROCYCLES AND THEIR USE AS WRN INHIBITORS” (Novartis AG, priority 2022, published 2026), this text covers GI50 and IC50 for 17 compounds.

Read-outs that look alike come from different tables or passages of the source.

One experiment concerns DLD1-WRN-KO cells. The experiment can be described thus: Proliferation assay DLD1-WRN-KO (CellTiterGlo, off-target effects). The experiment is classed as cell-based. The conditions noted are these: 96 hours, geometric mean of at least 2. Put shortly:
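DLD1 cells with CRISPR knockout of WRN were exposed overnight-seeded to eight 3-fold compound dilutions (0.1% DMSO) for 96 h at 37 °C. Viability was read as ATP by CellTiterGlo luminescence against a day-0 plate, giving GI50 and residual viability at top concentration.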
(Cellular ATP, detected with luciferase, serves as a proxy for viable cell number.)

Experiment [1] has as its target T1, WRN helicase (aa N517-P1238) (Homo sapiens, UniProt Q14191).
T1 construct: The core helicase motif of the WRN protein (aa N517-P1238) was produced for this assay; His (N); ZZ (N); 3C protease cleavage site (N); made in house; host or cells: Sf21 insect cells (baculovirus; virus and BIICs made in SF9)
Briefly: WRN ATPase assay (DNA dependent ATP hydrolysis, ADP-Glo). Type of experiment: biochemical. The conditions noted are these: 3 hours pre-incubation, 300 micromolar ATP, FLAP26 DNA; geometric mean of at least 2. Put shortly: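 DNA-dependent ATP hydrolysis detected as ADP by ADP-Glo luminescence, using 300 μM ATP, 0.2 nM FLAP26 substrate and 10 nM WRN aa N517-P1238 (Tris pH 7.5 buffer, 2 mM MgCl2, 50 mM NaCl). IC50s fitted from normalized duplicate half-log dilutions; reported as geometric means of at least 2 replicates.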

Another experiment has as its system SW48 cells. Briefly: Proliferation assay SW48 (CellTiterGlo). Type of experiment: cell-based. The conditions noted are these: SW48 colon carcinoma cells, 96 hours, CellTiterGlo, geometric mean of at least 2, read-out: Proliferation Assay SW48 GI50. Put shortly:
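SW48 cells, 2,000/well, treated after overnight seeding with eight 3-fold compound dilutions (0.1% DMSO) for 96 hours at 37° C. Viability read as ATP by CellTiterGlo luminescence, normalised to a day-0 plate and vehicle to give % growth; GI50 is geometric mean of ≥2 independent replicates.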

T1 sequence (Q14191 517-1238): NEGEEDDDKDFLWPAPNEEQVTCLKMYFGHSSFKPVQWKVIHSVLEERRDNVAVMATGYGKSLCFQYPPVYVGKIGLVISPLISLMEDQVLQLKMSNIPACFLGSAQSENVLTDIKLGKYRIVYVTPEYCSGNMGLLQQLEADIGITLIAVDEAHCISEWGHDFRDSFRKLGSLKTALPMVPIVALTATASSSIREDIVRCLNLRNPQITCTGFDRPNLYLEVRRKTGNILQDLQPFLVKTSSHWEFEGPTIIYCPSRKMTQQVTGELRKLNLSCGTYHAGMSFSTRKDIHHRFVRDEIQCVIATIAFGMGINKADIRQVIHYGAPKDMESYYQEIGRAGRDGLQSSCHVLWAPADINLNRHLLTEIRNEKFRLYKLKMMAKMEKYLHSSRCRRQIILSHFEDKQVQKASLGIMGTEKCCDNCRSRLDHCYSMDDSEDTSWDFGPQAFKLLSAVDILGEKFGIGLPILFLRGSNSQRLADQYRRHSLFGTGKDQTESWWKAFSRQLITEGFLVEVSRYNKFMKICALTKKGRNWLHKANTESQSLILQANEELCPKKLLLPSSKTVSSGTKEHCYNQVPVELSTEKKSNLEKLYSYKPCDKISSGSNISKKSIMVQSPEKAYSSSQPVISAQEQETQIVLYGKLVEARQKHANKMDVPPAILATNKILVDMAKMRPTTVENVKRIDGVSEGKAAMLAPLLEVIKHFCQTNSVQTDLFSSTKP

As to `CCc1c(N2CCN(C(=O)c3ccc(F)c(F)c3O)CC2)c(=O)n2nc(C3=CCCCO3)nc2n1CC(=O)Nc1ccc(C(F)(F)F)cc1` [Example 39, 2-(6-(4-(3,4-difluoro-2-hydroxybenzoyl)piperazin-1-yl)-2-(3,4-dihydro-2H-pyran-6-yl)-5-ethyl-7-oxo-[1,2,4]triazolo[1,5-a]pyrimidin-4(7H)-yl)-N-(4-(trifluoromethyl)phenyl)acetamide], the GI50 is 4 µM in the experiment on DLD1-WRN-KO cells and 0.3 µM in the experiment on SW48 cells (Homo sapiens, SW48, 96 h). The compound also yielded an IC50 in experiment [1] of 0.03 µM.
`CC(=O)N1CCN(c2c(C)n(CC(=O)Nc3cc(F)c(C(F)(F)F)c(F)c3)c3nc(C4=CCOCC4)nn3c2=O)CC1` [Example 103, 2-(6-(4-acetylpiperazin-1-yl)-2-(3,6-dihydro-2H-pyran-4-yl)-5-methyl-7-oxo-[1,2,4]triazolo[1,5-a]pyrimidin-4(7H)-yl)-N-(3,5-difluoro-4-(trifluoromethyl)phenyl)acetamide]: the GI50 in the experiment on DLD1-WRN-KO cells is above 10 µM; in the experiment with SW48 cells (Homo sapiens, SW48, 96 h), 4 µM. Moreover, the half-inhibitory concentration (IC50) in experiment [1] turned out to be 4 µM.
Consider `Cc1c(N2CCN(C(=O)c3ccncc3O)CC2)c(=O)n2nc(C3=CCOCC3)nc2n1CC(=O)Nc1ccc(C(F)(F)F)cc1` [Example 36, 2-(2-(3,6-dihydro-2H-pyran-4-yl)-6-(4-(3-hydroxyisonicotinoyl)piperazin-1-yl)-5-methyl-7-oxo-[1,2,4]triazolo[1,5-a]pyrimidin-4(7H)-yl)-N-(4-(trifluoromethyl)phenyl)acetamide], for which the GI50 in the experiment on DLD1-WRN-KO cells was above 10 µM; with SW48 cells (Homo sapiens, SW48, 96 h) it was above 10 µM. In addition, in experiment [1], inhibition was half-maximal at 0.1 µM (IC50).
As to `CCc1c(N2CCN(C(=O)c3cn(C)c(=O)[nH]3)CC2)c(=O)n2nc(C3=CCCC3)nc2n1CC(=O)Nc1ccc(C(F)(F)F)cc1` [Example 52, 2-(2-(cyclopent-1-en-1-yl)-5-ethyl-6-(4-(1-methyl-2-oxo-2,3-dihydro-1H-imidazole-4-carbonyl)piperazin-1-yl)-7-oxo-[1,2,4]triazolo[1,5-a]pyrimidin-4(7H)-yl)-N-(4-(trifluoromethyl)phenyl)acetamide], the GI50 in the experiment with DLD1-WRN-KO cells was above 10 µM; with SW48 cells (Homo sapiens, SW48, 96 h) it was 3 µM. In experiment [1], this compound returned a concentration for half-maximal inhibition (IC50) of 0.05 µM.
On the same counts, the results for `CC(=O)N1CCN(c2c(C)n(CC(=O)Nc3cc(F)c(Cl)cc3Cl)c3nc(C4=CCOCC4)nn3c2=O)CC1` [Example 97, 2-(6-(4-acetylpiperazin-1-yl)-2-(3,6-dihydro-2H-pyran-4-yl)-5-methyl-7-oxo-[1,2,4]triazolo[1,5-a]pyrimidin-4(7H)-yl)-N-(2,4-dichloro-5-fluorophenyl)acetamide] are above 10 µM, 4 µM and 1 µM.
The corresponding values for `CC(=O)N1CCN(c2c(C)n(CC(=O)Nc3cc(F)c(C(F)(F)F)cc3Cl)c3nc(C4=CCOCC4)nn3c2=O)CC1` [Example 91, 2-(6-(4-acetylpiperazin-1-yl)-2-(3,6-dihydro-2H-pyran-4-yl)-5-methyl-7-oxo-[1,2,4]triazolo[1,5-a]pyrimidin-4(7H)-yl)-N-(2-chloro-5-fluoro-4-(trifluoromethyl)phenyl)acetamide] are above 10 µM, 3 µM and 0.7 µM.
On the same counts, the results for `CC(=O)N1CCN(c2nc3n(CC(=O)Nc4ccc(Cl)cc4)c(C)c(N4CCN(C(=O)c5ccncc5O)CC4)c(=O)n3n2)CC1` [Example 2, 2-(2-(4-acetylpiperazin-1-yl)-6-(4-(3-hydroxyisonicotinoyl)piperazin-1-yl)-5-methyl-7-oxo-[1,2,4]triazolo[1,5-a]pyrimidin-4(7H)-yl)-N-(4-chlorophenyl)acetamide] are above 10 µM, above 10 µM and 0.3 µM.
For the compound `Cc1c(N2CCN(C(=O)c3c(F)ccc(F)c3O)C(C)C2)c(=O)n2nc(C3=CCOCC3)nc2n1CC(=O)Nc1ccc(C(F)(F)F)cc1` (stereo not drawn) [Example 148, 2-(6-(4-(3,6-difluoro-2-hydroxybenzoyl)-3-methylpiperazin-1-yl)-2-(3,6-dihydro-2H-pyran-4-yl)-5-methyl-7-oxo-[1,2,4]triazolo[1,5-a]pyrimidin-4(7H)-yl)-N-(4-(trifluoromethyl)phenyl)acetamide], the GI50 in the experiment on DLD1-WRN-KO cells is above 10 µM; in the experiment on SW48 cells (Homo sapiens, SW48, 96 h), 0.3 µM. The compound also had an IC50 in experiment [1] of 0.06 µM.
For `CCc1c(N2CCN(C(=O)c3ccnc(C)c3O)CC2)c(=O)n2nc(C3=CCOCC3)nc2n1CC(=O)Nc1ccc(C(F)(F)F)cc1Cl` [Example 49, N-(2-chloro-4-(trifluoromethyl)phenyl)-2-(2-(3,6-dihydro-2H-pyran-4-yl)-5-ethyl-6-(4-(3-hydroxy-2-methylisonicotinoyl)piperazin-1-yl)-7-oxo-[1,2,4]triazolo[1,5-a]pyrimidin-4(7H)-yl)acetamide], the GI50 in the experiment with DLD1-WRN-KO cells was above 10 µM; in the experiment on SW48 cells (Homo sapiens, SW48, 96 h), 0.5 µM. Further, in experiment [1], the IC50 was 0.2 µM.
With `CC(=O)N1CCN(c2c(C)n(CC(=O)Nc3ccc(C(F)(F)F)cc3)c3nc(-c4ccccn4)nn3c2=O)CC1` [Example 115, 2-(6-(4-acetylpiperazin-1-yl)-5-methyl-7-oxo-2-(pyridin-2-yl)-[1,2,4]triazolo[1,5-a]pyrimidin-4(7H)-yl)-N-(4-(trifluoromethyl)phenyl)acetamide], the GI50 stood at 5 µM in the experiment on DLD1-WRN-KO cells and 2 µM in the experiment with SW48 cells (Homo sapiens, SW48, 96 h). This compound also showed a half-inhibitory concentration (IC50) in experiment [1] of 0.5 µM.
On to `CCON1CCN(c2nc3n(CC(=O)Nc4ccc(C(F)(F)F)cc4)c(C)c(N4CCN(C(C)=O)CC4)c(=O)n3n2)CC1` [Example 131, 2-(6-(4-acetylpiperazin-1-yl)-2-(4-ethoxypiperazin-1-yl)-5-methyl-7-oxo-[1,2,4]triazolo[1,5-a]pyrimidin-4(7H)-yl)-N-(4-(trifluoromethyl)phenyl)acetamide], for which the GI50 is above 10 µM in the experiment with DLD1-WRN-KO cells and 6 µM with SW48 cells (Homo sapiens, SW48, 96 h). In experiment [1], this compound came in with an IC50 of 1 µM.
On the same counts, the results for `Cc1c(N2CCN(C(=O)c3ccnc(F)c3O)CC2)c(=O)n2nc(C3=CCOCC3)nc2n1CC(=O)Nc1ccc(C(F)(F)F)cc1` [Example 19, 2-(2-(3,6-dihydro-2H-pyran-4-yl)-6-(4-(2-fluoro-3-hydroxyisonicotinoyl)piperazin-1-yl)-5-methyl-7-oxo-[1,2,4]triazolo[1,5-a]pyrimidin-4(7H)-yl)-N-(4-(trifluoromethyl)phenyl)acetamide] are above 10 µM, above 10 µM and 0.06 µM.
For the compound `CCc1c(N2CCN(C(=O)C3CCOC3)CC2)c(=O)n2nc(C3=CCCCO3)nc2n1CC(=O)Nc1ccc(C(F)(F)F)cc1` (stereo not drawn) [Example 60, 2-(2-(3,4-dihydro-2H-pyran-6-yl)-5-ethyl-7-oxo-6-(4-(tetrahydrofuran-3-carbonyl)piperazin-1-yl)-[1,2,4]triazolo[1,5-a]pyrimidin-4(7H)-yl)-N-(4-(trifluoromethyl)phenyl)acetamide], the GI50 with DLD1-WRN-KO cells is above 10 µM; in the experiment with SW48 cells, 3 µM. In experiment [1], inhibition was half-maximal at 0.3 µM (IC50).
`CCc1c(N2CCN(C(=O)c3ccnc(F)c3O)CC2)c(=O)n2nc(C3=CCOCC3)nc2n1CC(=O)Nc1ccc(C(F)(F)F)cc1Cl` [Example 42, N-(2-chloro-4-(trifluoromethyl)phenyl)-2-(2-(3,6-dihydro-2H-pyran-4-yl)-5-ethyl-6-(4-(2-fluoro-3-hydroxyisonicotinoyl)piperazin-1-yl)-7-oxo-[1,2,4]triazolo[1,5-a]pyrimidin-4(7H)-yl)acetamide]: the GI50 with DLD1-WRN-KO cells was above 10 µM; in the experiment on SW48 cells (Homo sapiens, SW48, 96 h), 0.5 µM. Besides, the half-maximal inhibitory concentration (IC50) in experiment [1] was found to be 0.07 µM.
On the same counts, the results for `CC(=O)N1CCN(c2c(C)n(CC(=O)Nc3ccc(Cl)cc3)c3nc(C4=CCCCO4)nn3c2=O)CC1` [Example 79, 2-(6-(4-acetylpiperazin-1-yl)-2-(3,4-dihydro-2H-pyran-6-yl)-5-methyl-7-oxo-[1,2,4]triazolo[1,5-a]pyrimidin-4(7H)-yl)-N-(4-chlorophenyl)acetamide] are above 10 µM, 5 µM and 0.2 µM.
On to `Cc1c(N2CCN(C(=O)c3ncccc3N)CC2)c(=O)n2nc(N3CCOCC3)nc2n1CC(=O)Nc1ccc(C(F)(F)F)cc1` [Example 160, 2-(6-(4-(3-aminopicolinoyl)piperazin-1-yl)-5-methyl-2-morpholino-7-oxo-[1,2,4]triazolo[1,5-a]pyrimidin-4(7H)-yl)-N-(4-(trifluoromethyl)phenyl)acetamide], for which the GI50 with DLD1-WRN-KO cells was above 10 µM; with SW48 cells (Homo sapiens, SW48, 96 h), 6 µM. This compound also displayed an IC50 in experiment [1] of 0.6 µM.
On to `Cc1c(N2CCN(C(=O)c3cc(F)ccc3O)CC2)c(=O)n2nc(C3=CCOCC3)nc2n1CC(=O)Nc1ccc(C(F)(F)F)cc1` [Example 17, 2-(2-(3,6-dihydro-2H-pyran-4-yl)-6-(4-(5-fluoro-2-hydroxybenzoyl)piperazin-1-yl)-5-methyl-7-oxo-[1,2,4]triazolo[1,5-a]pyrimidin-4(7H)-yl)-N-(4-(trifluoromethyl)phenyl)acetamide], for which the GI50 with DLD1-WRN-KO cells stood at 8 µM; in the experiment on SW48 cells (Homo sapiens, SW48, 96 h), 0.9 µM. Also, in experiment [1], the 50% inhibitory concentration (IC50) is 0.05 µM.

As a reminder, the IC50 is the point on the concentration scale where inhibition reaches its midpoint. High values mean a need for much substance, low ones inhibition by little substance.
